Test results taken from patent publication US8901301B2, “Pyrrolo[2,3-]pyridine kinase inhibitors” (Plexxikon Inc., priority 2009, dated 2014).

Assays:
Itk = biological target: T1, Itk (Homo sapiens, UniProt Q08881); assay: Biochemical inhibitory activity, other protein kinases: Itk; conditions: listing of the kinase means IC50 >1 μM
T1 sequence (Q08881 1-620): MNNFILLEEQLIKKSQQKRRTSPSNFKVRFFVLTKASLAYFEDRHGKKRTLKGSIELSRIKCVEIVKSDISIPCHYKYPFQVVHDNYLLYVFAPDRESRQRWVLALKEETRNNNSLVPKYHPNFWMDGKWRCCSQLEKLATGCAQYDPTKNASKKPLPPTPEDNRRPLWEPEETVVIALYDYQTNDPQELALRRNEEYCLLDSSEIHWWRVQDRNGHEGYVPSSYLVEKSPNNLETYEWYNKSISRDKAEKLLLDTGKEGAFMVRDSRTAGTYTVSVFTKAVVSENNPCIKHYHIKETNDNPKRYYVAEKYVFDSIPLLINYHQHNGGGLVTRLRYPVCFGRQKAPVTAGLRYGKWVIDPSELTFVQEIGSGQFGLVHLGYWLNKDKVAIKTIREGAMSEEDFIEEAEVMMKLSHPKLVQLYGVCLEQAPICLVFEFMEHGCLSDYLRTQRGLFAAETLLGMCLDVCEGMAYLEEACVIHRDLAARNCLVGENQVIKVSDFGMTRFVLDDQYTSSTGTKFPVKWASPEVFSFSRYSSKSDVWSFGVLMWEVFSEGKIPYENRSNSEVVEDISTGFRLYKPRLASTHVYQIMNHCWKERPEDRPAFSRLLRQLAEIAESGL

Jnk1 = Jnk1 (Homo sapiens, UniProt P45983); assay: Biochemical inhibitory activity, other protein kinases: Jnk1; conditions: listing of the kinase means IC50 >1 μM
Jnk1, sequence (P45983 whole entry, species assumed): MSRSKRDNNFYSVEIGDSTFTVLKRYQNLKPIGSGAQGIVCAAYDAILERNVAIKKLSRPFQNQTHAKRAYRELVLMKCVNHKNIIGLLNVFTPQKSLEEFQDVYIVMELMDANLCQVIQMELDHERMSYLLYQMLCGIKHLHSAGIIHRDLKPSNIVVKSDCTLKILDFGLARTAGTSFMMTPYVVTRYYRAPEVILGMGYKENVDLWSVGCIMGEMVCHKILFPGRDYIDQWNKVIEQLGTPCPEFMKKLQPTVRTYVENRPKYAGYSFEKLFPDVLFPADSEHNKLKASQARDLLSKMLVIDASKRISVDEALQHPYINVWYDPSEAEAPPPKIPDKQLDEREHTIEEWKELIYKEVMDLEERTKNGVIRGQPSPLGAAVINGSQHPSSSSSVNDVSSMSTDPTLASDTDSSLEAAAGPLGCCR

CYP3A4(BFC) = biological target: T2, CYP3A4(BFC) (Homo sapiens, UniProt P08684); assay: CYP inhibition (fluorescent substrate), CYP3A4(BFC); assay type: in vitro ADME; conditions: read-out: Cyp IC50 (μM) 3A4(BFC)
T2 construct: purchased BD Biosciences
T2 sequence (P08684 whole entry): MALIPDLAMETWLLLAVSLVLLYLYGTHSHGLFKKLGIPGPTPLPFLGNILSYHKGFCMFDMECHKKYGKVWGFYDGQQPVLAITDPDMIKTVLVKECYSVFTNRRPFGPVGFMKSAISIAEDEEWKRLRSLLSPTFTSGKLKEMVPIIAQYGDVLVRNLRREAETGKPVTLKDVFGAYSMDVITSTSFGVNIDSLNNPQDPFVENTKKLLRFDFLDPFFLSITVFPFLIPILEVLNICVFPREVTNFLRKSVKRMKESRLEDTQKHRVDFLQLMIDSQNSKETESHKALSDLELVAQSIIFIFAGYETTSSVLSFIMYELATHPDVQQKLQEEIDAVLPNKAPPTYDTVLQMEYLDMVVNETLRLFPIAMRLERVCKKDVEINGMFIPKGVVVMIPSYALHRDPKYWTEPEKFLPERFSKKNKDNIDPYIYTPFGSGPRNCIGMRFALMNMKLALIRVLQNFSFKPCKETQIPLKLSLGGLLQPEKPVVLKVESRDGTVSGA
Experimental: CYP (Cytochrome P450) enzymes are the major drug metabolizing enzymes present in the liver. The inhibition of CYP enzyme activity (IC50) for each of CYP1A2, CYP2C19, CYP2C9, CYP2D6, CYP3A4(BFC) and CYP3A4(BQ) is determined for compounds, where inhibition of metabolism of a known substrate leads to a decrease in the fluorescence of the metabolized product. The fluorescence of the product is monitored as a function of compound concentration. Compounds are dissolved in dimethyl sulfoxide to a concentration of 100 mM. These are diluted 1 μL into 82 μL of acetonitrile. An 11 μL aliquot of this solution is then added to 204 μL of cofactor mix (1.3% NADPH Regeneration system Solution A, 1.04% NADPH Regeneration system Solution B from BD Biosciences, 5% acetonitrile and 0.05% dimethyl sulfoxide). These are then serially diluted 1:1 (160 μL to 160 μL co-factor mix) for a total of 10 points. A 10 μL aliquot of this final mixture is dispensed into 384 well assay plates and incubated for 10 minutes at 37° C. […] Assay plates are incubated at 37° C. (CYP1A2-15 min; CYP2C9-45 min; CYP2C19, 2D6 and 3A4-30 min) and read in a Tecan Safire 2 plate reader (CYP1A2, 2C19 and 3A4 409 ex/460 em; CYP2C9 and 2D6 409 ex/530 em). The signal versus compound concentration is used to determine the IC50. The enzymes and substrates for this assay are obtained from BD Biosciences.

MAPKAPK2 = MAPKAPK2 (Homo sapiens, UniProt P49137); assay: Biochemical inhibitory activity, other protein kinases: MAPKAPK2; conditions: listing of the kinase means IC50 >1 μM
MAPKAPK2, sequence (P49137 whole entry, species assumed): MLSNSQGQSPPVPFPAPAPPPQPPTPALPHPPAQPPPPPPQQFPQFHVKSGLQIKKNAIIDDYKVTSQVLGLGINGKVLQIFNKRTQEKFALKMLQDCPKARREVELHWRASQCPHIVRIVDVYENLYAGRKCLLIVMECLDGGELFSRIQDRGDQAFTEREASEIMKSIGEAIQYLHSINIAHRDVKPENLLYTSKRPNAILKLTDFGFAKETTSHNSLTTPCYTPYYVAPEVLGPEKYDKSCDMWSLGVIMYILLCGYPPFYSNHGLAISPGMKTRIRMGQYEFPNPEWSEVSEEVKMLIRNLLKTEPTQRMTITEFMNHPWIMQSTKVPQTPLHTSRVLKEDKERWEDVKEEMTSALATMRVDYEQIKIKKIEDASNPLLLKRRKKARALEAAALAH

TrkA = TrkA (Homo sapiens, UniProt P04629); assay: Biochemical inhibitory activity, other protein kinases: TrkA; conditions: listing of the kinase means IC50 >1 μM
TrkA, sequence (P04629 33-796, species assumed): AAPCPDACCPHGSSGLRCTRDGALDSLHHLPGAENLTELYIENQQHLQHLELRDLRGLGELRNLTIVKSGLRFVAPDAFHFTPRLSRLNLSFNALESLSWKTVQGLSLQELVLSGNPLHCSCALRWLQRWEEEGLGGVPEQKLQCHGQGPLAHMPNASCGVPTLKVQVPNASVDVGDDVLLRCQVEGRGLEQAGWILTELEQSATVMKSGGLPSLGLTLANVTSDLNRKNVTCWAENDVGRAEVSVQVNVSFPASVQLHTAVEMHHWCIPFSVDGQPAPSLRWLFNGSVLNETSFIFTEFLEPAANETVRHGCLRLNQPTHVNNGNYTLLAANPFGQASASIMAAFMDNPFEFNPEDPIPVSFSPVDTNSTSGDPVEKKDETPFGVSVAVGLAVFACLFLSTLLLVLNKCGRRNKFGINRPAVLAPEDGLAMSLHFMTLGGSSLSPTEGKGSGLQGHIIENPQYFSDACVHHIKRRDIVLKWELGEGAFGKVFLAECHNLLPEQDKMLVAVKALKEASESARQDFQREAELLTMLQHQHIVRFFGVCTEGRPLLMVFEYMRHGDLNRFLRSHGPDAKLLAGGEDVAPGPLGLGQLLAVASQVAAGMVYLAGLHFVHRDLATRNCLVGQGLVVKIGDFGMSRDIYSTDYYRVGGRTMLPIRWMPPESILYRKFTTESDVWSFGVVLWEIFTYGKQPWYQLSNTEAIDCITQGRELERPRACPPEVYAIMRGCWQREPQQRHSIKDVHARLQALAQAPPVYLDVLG

Brk = Brk (Homo sapiens, UniProt Q13882); assay: Biochemical inhibitory activity, other protein kinases: Brk; conditions: listing of the kinase means IC50 <1 μM
Brk, sequence (Q13882 whole entry, species assumed): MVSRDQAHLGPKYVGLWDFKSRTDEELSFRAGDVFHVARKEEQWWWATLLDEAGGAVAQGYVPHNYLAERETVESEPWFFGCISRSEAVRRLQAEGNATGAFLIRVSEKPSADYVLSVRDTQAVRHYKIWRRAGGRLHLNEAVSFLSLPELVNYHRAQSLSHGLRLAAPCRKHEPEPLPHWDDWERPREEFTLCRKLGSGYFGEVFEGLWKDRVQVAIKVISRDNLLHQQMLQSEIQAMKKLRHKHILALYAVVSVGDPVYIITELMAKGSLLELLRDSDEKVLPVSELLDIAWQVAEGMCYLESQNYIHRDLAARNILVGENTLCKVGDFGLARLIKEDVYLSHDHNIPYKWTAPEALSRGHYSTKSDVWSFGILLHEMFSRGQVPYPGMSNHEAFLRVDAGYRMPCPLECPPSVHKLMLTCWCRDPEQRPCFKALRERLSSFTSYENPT

Ack1 = Ack1 (Homo sapiens, UniProt Q07912); assay: Biochemical inhibitory activity, other protein kinases: Ack1; conditions: listing of the kinase means IC50 <1 μM
Flt1 = Flt1 (Homo sapiens, UniProt P17948); assay: Biochemical inhibitory activity, other protein kinases: Flt1; conditions: listing of the kinase means IC50 >1 μM
mTor = mTor (Homo sapiens, UniProt P42345); assay: Biochemical inhibitory activity, other protein kinases: mTor; conditions: listing of the kinase means IC50 >1 μM
PI3Kα = PI3Kα (Homo sapiens, UniProt P42336); assay: Biochemical inhibitory activity, other protein kinases: PI3Kα; conditions: listing of the kinase means IC50 >1 μM
PI3Kα, sequence (P42336 whole entry, species assumed): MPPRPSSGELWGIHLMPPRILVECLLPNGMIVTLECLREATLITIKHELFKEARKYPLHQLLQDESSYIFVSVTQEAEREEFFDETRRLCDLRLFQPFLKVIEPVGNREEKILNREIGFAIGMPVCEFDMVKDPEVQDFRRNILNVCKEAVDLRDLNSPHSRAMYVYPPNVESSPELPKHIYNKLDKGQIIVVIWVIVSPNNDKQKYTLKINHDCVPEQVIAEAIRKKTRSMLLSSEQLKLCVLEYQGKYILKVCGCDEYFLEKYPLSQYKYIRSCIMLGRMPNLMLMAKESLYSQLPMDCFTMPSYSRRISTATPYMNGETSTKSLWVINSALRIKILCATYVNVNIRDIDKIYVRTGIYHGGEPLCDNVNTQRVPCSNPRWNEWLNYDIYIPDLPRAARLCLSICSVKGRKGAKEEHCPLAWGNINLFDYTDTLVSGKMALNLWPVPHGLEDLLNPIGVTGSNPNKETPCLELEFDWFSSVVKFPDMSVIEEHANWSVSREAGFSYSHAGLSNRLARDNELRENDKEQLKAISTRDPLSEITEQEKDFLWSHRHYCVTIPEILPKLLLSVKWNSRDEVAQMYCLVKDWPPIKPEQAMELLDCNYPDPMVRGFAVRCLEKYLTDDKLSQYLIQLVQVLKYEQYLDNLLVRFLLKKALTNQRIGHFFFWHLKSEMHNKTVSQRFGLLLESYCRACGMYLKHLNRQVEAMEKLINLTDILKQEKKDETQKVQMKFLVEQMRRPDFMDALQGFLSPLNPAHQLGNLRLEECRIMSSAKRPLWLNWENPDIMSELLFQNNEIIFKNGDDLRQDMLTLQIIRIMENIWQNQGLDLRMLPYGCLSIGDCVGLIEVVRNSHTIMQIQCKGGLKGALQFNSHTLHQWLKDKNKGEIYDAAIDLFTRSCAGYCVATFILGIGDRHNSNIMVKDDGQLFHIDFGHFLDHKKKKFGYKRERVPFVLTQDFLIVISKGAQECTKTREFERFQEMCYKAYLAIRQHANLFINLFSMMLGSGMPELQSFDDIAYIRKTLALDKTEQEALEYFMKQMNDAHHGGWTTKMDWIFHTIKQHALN
PI3Kα, sequence (P27986 whole entry partner, species assumed): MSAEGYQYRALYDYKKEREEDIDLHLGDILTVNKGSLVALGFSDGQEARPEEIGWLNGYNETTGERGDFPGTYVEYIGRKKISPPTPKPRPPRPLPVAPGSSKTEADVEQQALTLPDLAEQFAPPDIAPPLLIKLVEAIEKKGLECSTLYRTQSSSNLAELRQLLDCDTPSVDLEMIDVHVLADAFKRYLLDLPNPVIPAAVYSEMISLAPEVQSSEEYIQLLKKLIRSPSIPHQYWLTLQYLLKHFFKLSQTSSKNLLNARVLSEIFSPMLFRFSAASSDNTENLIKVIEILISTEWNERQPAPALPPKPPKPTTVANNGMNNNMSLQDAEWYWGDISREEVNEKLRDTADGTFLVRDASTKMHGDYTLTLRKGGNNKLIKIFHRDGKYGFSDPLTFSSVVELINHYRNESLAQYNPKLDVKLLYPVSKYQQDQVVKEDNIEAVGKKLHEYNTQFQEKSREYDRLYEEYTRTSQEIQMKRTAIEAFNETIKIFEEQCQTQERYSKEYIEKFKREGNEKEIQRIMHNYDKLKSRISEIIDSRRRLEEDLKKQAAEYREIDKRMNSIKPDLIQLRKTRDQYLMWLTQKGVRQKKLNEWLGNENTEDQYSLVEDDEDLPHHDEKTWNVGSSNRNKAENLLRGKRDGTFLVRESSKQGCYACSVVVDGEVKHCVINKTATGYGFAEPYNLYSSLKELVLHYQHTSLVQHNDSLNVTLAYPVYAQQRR

PI3Kδ = PI3Kδ (Homo sapiens, UniProt O00329); assay: Biochemical inhibitory activity, other protein kinases: PI3Kδ; conditions: listing of the kinase means IC50 >1 μM
PI3Kγ = PI3Kγ (Homo sapiens, UniProt P48736); assay: Biochemical inhibitory activity, other protein kinases: PI3Kγ; conditions: listing of the kinase means IC50 >1 μM
Trk = Trk (Homo sapiens, UniProt P04629); assay: Biochemical inhibitory activity, other protein kinases: Trk; conditions: listing of the kinase means IC50 >1 μM
Trk, sequence (P04629 33-796, species assumed): as the sequence (P04629 33-796, species assumed) above

| Kinase having IC50 of >1 μM (Itk) | Kinase having IC50 of >1 μM (Jnk1) | IC50 (CYP3A4(BFC)) [µM] | Kinase having IC50 of >1 μM (MAPKAPK2) | Kinase having IC50 of >1 μM (TrkA) | Kinase having IC50 of <1 μM (Brk) | Kinase having IC50 of <1 μM (Ack1) | Kinase having IC50 of >1 μM (Flt1) | Kinase having IC50 of >1 μM (mTor) | Kinase having IC50 of >1 μM (PI3Kα) | Kinase having IC50 of >1 μM (PI3Kδ) | Kinase having IC50 of >1 μM (PI3Kγ) | Kinase having IC50 of >1 μM (Trk) | Compound |
| --- | --- | --- | --- | --- | --- | --- | --- | --- | --- | --- | --- | --- | --- |
| – | – | > 10 | MAPKAPK2 | – | – | – | – | – | – | – | – | – | N#Cc1cnc2[nH]cc(C(=O)c3c(F)ccc(NS(=O)(=O)N4CCCC4)c3F)c2c1 [Compound P-0006, pyrrolidine-1-sulfonic acid [3-(5-cyano-1H-pyrrolo[2,3-b]pyridine-3-carbonyl)-2,4-difluoro-phenyl]-amide] |
| Itk | Jnk1 | 5 to 10 | MAPKAPK2 | – | – | – | – | – | – | – | – | – | CN(C)S(=O)(=O)Nc1ccc(F)c(C(=O)c2c[nH]c3ncc(C#N)cc23)c1F [Compound P-0007, N,N-dimethylamino-sulfonic acid [3-(5-cyano-1H-pyrrolo[2,3-b]pyridine-3-carbonyl)-2,4-difluoro-phenyl]-amide] |

More lines, now with the values behind:

| Compound | Kinase having IC50 of >1 μM (Itk) | Kinase having IC50 of >1 μM (Jnk1) | IC50 (CYP3A4(BFC)) [µM] | Kinase having IC50 of >1 μM (MAPKAPK2) | Kinase having IC50 of >1 μM (TrkA) | Kinase having IC50 of <1 μM (Brk) | Kinase having IC50 of <1 μM (Ack1) | Kinase having IC50 of >1 μM (Flt1) | Kinase having IC50 of >1 μM (mTor) | Kinase having IC50 of >1 μM (PI3Kα) | Kinase having IC50 of >1 μM (PI3Kδ) | Kinase having IC50 of >1 μM (PI3Kγ) | Kinase having IC50 of >1 μM (Trk) |
| --- | --- | --- | --- | --- | --- | --- | --- | --- | --- | --- | --- | --- | --- |
| N#Cc1cnc2[nH]cc(C(=O)c3c(F)ccc(NS(=O)(=O)c4cccc(F)c4)c3F)c2c1 [Compound P-0005, N-[3-(5-cyano-1H-pyrrolo[2,3-b]pyridine-3-carbonyl)-2,4-difluoro-phenyl]-3-fluoro-benzenesulfonamide] | Itk | Jnk1 | > 10 | – | – | – | – | – | – | – | – | – | – |
| N#Cc1cnc2[nH]cc(C(=O)c3c(F)ccc(NS(=O)(=O)c4cc(F)ccc4F)c3F)c2c1 [Compound P-0004, N-[3-(5-cyano-1H-pyrrolo[2,3-b]pyridine-3-carbonyl)-2,4-difluoro-phenyl]-2,5-difluoro-benzenesulfonamide] | Itk | Jnk1 | 5 to 10 | – | – | – | – | – | – | – | – | – | – |
| CCCS(=O)(=O)Nc1cccc(C(=O)c2c[nH]c3ncc(C#N)cc23)c1F [Compound P-0003, propane-1-sulfonic acid [3-(5-cyano-1H-pyrrolo[2,3-b]pyridine-3-carbonyl)-2-fluoro-phenyl]-amide] | – | – | > 10 | MAPKAPK2 | TrkA | – | – | – | – | – | – | – | – |
| CCCS(=O)(=O)Nc1ccc(F)c(C(=O)c2c[nH]c3ncc(C#N)cc23)c1F [Compound P-0002, propane-1-sulfonic acid [3-(5-cyano-1H-pyrrolo[2,3-b]pyridine-3-carbonyl)-2,4-difluoro-phenyl]-amide] | Itk | – | > 10 | MAPKAPK2 | TrkA | Brk | Ack1 | Flt1 | – | – | – | – | – |
| CCCS(=O)(=O)Nc1ccc(F)c(C(=O)c2c[nH]c3ncc(-c4cnc(OC)nc4)cc23)c1F [Compound P-0001, propane-1-sulfonic acid {2,4-difluoro-3-[5-(2-methoxy-pyrimidin-5-yl)-1H-pyrrolo[2,3-b]pyridine-3-carbonyl]-phenyl}-amide] | Itk | Jnk1 | > 10 | MAPKAPK2 | – | Brk | – | – | mTor | PI3Kα | PI3Kδ | PI3Kγ | Trk |
